The structures appear in SMILES notation.

The assay deals with herpes simplex virus type 2 (HSV-2) thymidine kinase (Human herpesvirus 2, UniProt P89446). Kind of assay: Inhibition of herpes simplex virus type 2 (HSV-2) thymidine kinase in vitro (3H-thymidine phosphorylation). Format: biochemical. Conditions: thymidine kinase extract, 0.3 μM 3H-thymidine, 5 mM ATP, pH 8, 37° C., 30 minutes. On the procedure: In this test, the assay mixture contains 50 mM Tris-HCl, pH 8, 5 mM magnesium chloride, 5 mM ATP, 0.3 μM ^3 H-thymidine (50 Ci/mmol), suitably diluted thymidine kinase extract and various concentrations of compounds of formula I or tautomers in a total volume of 100 μl. Assays are incubated at 37° C. for 30 minutes and the reaction is terminated by immersion in a boiling water bath for 2 minutes. 85 μl aliquots from each assay are then dried on cellulose paper discs and the unphosphorylated ^3 H-thymidine is removed by washing in 4 mM ammonium formate. The radioactivity remaining bound to the discs is then measured by scintillation spectrophotometry. The degree of inhibition at each concentration of compound of formula I is expressed as a percentage of the control reaction (100%) after substracting a measured blank value which represents the amount of radioactivity bound to the disc from a reaction containing heat inactivated enzymes. The IC50 value, namely the concentration of compound of formula I or tautomer thereof which inhibits enzyme activity by 50%, is then calculated. The results obtained with representative compounds of formula I are compiled in the following Table: […]
herpes simplex virus type 2 (HSV-2) thymidine kinase, sequence (P89446 whole entry): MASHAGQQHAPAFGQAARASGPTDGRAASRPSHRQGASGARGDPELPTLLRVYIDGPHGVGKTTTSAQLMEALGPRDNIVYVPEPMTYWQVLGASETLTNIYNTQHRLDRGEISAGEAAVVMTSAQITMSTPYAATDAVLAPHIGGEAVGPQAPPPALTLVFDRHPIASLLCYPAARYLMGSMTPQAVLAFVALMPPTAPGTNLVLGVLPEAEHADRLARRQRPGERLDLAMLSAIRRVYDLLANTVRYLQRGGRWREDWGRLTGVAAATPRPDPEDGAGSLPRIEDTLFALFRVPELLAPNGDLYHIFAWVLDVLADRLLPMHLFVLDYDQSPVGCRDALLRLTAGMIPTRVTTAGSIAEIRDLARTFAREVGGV
In turn, `CCc1cn([C@H]2C[C@H](O)[C@@H](CNCCc3c(Cl)cccc3Cl)O2)c(=O)[nH]c1=O` [Example 3b, 5'-[2-(2,6-dichlorophenyl)ethylamino]-2',5'-dideoxy-5-ethyluridine] displayed an IC50 of 90 nM.
For the compound `CCc1cn([C@H]2C[C@H](O)[C@@H](CNCc3cccc(Cl)c3Cl)O2)c(=O)[nH]c1=O` [Example 4b, 5'-(2,3-dichlorobenzylamino)-2',5'-dideoxy-5-ethyluridine], the concentration for half-maximal inhibition (IC50) amounted to 60 nM.
To `CCc1cn([C@H]2C[C@H](O)[C@@H](CNCc3c(Cl)cccc3Cl)O2)c(=O)[nH]c1=O` [Example 4c, 5'-(2,6-dichlorobenzylamino)-2',5'-dideoxy-5-ethyluridine] belongs 80 nM.

For orientation: IC50 means the concentration that gives 50% inhibition. Low values mean greater potency in that assay, high ones weaker potency in that assay.

The record behind these values is patent US4886785A, “Pyrimidine derivatives, pharmaceutical compositions and method of using same” (Hoffmann-La Roche Inc., priority 1986, dated 1989).
